According to US7022739B2, “Substituted 1-aminobutan-3-ol compounds” (Gruenenthal GmbH, priority 2000, dated 2006):

What was measured:
gabapentin binding site = experiment: Gabapentin binding assay (displacement of gabapentin from its binding site)
Experimental: Gabapentin is used in the binding assay in order to check the binding and affinities of the selected compounds. The affinity of the compounds according to the invention is measured via the displacement of gabapentin from its binding site.

[1] = tested on: phenylquinone-induced writhing; experiment: Phenylquinone-induced writhing test in mice; format: in vivo; conditions: male NMRI mice, groups of 10

| Structure (SMILES) | % Inhibition Gabapentin, 10 μmole (gabapentin binding site) [%] | Reacting Animals/Control Animals (Writhing) ([1]; 10 mg/kg, iv) | also measured |
| --- | --- | --- | --- |
| CN(C)CC1CCCC(c2cccc(O)c2)C1(O)c1ccccc1 (stereo not shown) [Example 82, 3-(3-dimethylaminomethyl-2-hydroxy-2-phenylcyclohexyl)-phenol] | 55 |  |  |
| CN(C)CC1CCCC(c2cccc(O)c2)C1(O)c1ccc(F)cc1 (stereo not shown) [Example 81, 3-[3-dimethylaminomethyl-2-(4-fluorophenyl)-2-hydroxycyclohexyl]-phenol] | 48 |  |  |
| CN(C)CC1CCCC(C(C)(C)C)C1(O)c1cccc(O)c1 (stereo not shown) [Example 89, 3-(2-tert.-butyl-6-dimethylaminomethyl-1-hydroxycyclohexyl)-phenol] |  | 3/10 (10 mg/kg; iv) |  |
| COc1cccc(C2CCCC(CN(C)C)C2(O)c2ccc(C)cc2)c1 (stereo not shown) [Example 76, 2-dimethylaminomethyl-6-(3-methoxyphenyl)-1-p-tolylcyclohexanol] | 53 |  |  |
| COc1cccc(C2CCCC(CN(C)C)C2(O)c2ccc(Cl)cc2)c1 (stereo not shown) [Example 45, 1-(4-chlorophenyl)-2-dimethylaminomethyl-6-(3-methoxyphenyl)-cyclohexanol] | 58 |  |  |
| COc1cccc(C2CCCC(CN(C)C)C2(O)c2ccc(Cl)cc2)c1 (stereo not shown) [Example 85, 1-(4-chlorophenyl)-2-dimethylaminomethyl-6-(3-methoxyphenyl)-cyclohexanol] |  |  | Reacting Animals/Control Animals (Writhing) ([1]; 46.4 mg/kg, iv): 10/10 (46.4 mg/kg; iv) |
| COc1cccc(C2(O)C(CN(C)C)CCCC2C2CCCCC2)c1 (stereo not shown) [Example 86, 3-dimethylaminomethyl-2-(3-methoxyphenyl)-bicyclohexyl-2-ol] |  |  | Reacting Animals/Control Animals (Writhing) ([1]; 21.5 mg/kg, po): 3/10 (21.5 mg/kg; po) |
| CN(C)CC1CCCC(Cc2ccccc2)C1(O)c1cccc(O)c1 (stereo not shown) [Example 88, 3-(2-benzyl-6-dimethylaminomethyl-1-hydroxycyclohexyl)-phenol] |  | 2/10 (10 mg/kg; iv) |  |
| CN(C)CC1CCCC(Cc2ccccc2)C1(O)c1ccc(C(F)(F)F)cc1 (stereo not shown) [Example 87, 2-benzyl-6-dimethylaminomethyl-1-(4-trifluoromethylphenyl)-cyclohexanol] |  | 2/10 (10 mg/kg; iv) |  |
| COc1cccc(C2CCCC(CN(C)C)C2(O)c2cccc(Cl)c2)c1 (stereo not shown) [Example 75, 1-(3-chlorophenyl)-2-dimethylaminomethyl-6-(3-methoxyphenyl)-cyclohexanol] | 54 |  |  |
